Data as given in US11613527B2, “Enzyme inhibitors” (KalVista Pharmaceuticals Limited, priority 2019, dated 2023).
Converted amounts (≈) assume the structure as drawn.

Legend:
Human plasma kallikrein = Human plasma kallikrein (Homo sapiens (Human), UniProt P03952); experiment: Determination of the IC50 for plasma kallikrein (fluorogenic substrate H-DPro-Phe-Arg-AFC); type: biochemical; conditions: class symbols A-D, read-out: IC50 (human PKal)
Method in brief: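 IC50 values come from initial rates, monitored as the change in absorbance at 410 nm, of residual enzyme activity. Test compound was present at various concentrations with the fluorogenic substrate H-DPro-Phe-Arg-AFC, and the reaction was run at 25° C.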

[1] = Pharmacokinetics following a single oral dose in male Sprague-Dawley rats; type: in vivo; conditions: rat, nominal 5 mg/kg in 10% DMSO/10% cremophor/80% SWFI, plasma
Description: Pharmacokinetic studies of the compounds in Table 14 were performed to assess the pharmacokinetics following a single oral dose in male Sprague-Dawley rats. Two rats were given a single po dose of 5 mL/kg of a nominal 1 mg/mL (5 mg/kg) composition of test compound in 10% DMSO/10% cremophor/80% SWFI vehicle. Following dosing, blood samples were collected over a period of […]. Sample times were 5, 15 and 30 minutes then 1, 2, 4, 6, 8 and 12 hours. Following collection, blood samples were centrifuged and the plasma fraction analysed for concentration of test compound by LCMS.

[2] = Solubility after 24 hrs in Fasted State Simulated Intestinal Fluid (FaSSIF); type: physicochemical; conditions: Fasted State Simulated Intestinal Fluid (FaSSIF), thermodynamic from solid, 24 hrs at 37° C., nominal concentration 1 mg/mL (as free base)
Method in brief: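 Compound at nominal 1 mg/mL (as free base) in freshly prepared FaSSIF, shaken 24 h at 37 °C, ~500 rpm. After centrifugation at 15,000 g for 10 min at 37 °C, dissolved concentration measured by LCMS.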

Human KLK1 = Human KLK1 (Homo sapiens (Human), UniProt P06870); experiment: Determination of the IC50 for KLK1 (fluorogenic substrate H-DVal-Leu-Arg-AFC); type: biochemical
Method in brief: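 Inhibition read as initial rate via optical absorbance change at 410 nm, giving IC50. Reactions combined human KLK1, the substrate H-DVal-Leu-Arg-AFC and varied compound concentrations at 25° C.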

Human FXIa = Human FXIa (Homo sapiens (Human), UniProt P03951); experiment: Determination of the % inhibition for FXIa (fluorogenic substrate Z-Gly-Pro-Arg-AFC; 40 μM or IC50); type: biochemical
Method in brief: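 Inhibition measured from initial reaction rate, followed as absorbance change at 410 nm, with substrate Z-Gly-Pro-Arg-AFC at 25 °C. Compound tested at a single 40 μM dose for percent inhibition, or across several concentrations to derive IC50 against human FXIa.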

Sequence of Human KLK1 (P06870 25-262): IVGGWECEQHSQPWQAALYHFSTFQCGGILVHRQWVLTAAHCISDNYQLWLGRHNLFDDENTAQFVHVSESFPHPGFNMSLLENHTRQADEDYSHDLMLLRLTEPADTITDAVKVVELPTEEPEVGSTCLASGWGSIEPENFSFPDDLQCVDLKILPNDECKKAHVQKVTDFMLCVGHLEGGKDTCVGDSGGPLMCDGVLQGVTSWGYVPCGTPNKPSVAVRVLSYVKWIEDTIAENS
Sequence of Human FXIa (P03951 388-625): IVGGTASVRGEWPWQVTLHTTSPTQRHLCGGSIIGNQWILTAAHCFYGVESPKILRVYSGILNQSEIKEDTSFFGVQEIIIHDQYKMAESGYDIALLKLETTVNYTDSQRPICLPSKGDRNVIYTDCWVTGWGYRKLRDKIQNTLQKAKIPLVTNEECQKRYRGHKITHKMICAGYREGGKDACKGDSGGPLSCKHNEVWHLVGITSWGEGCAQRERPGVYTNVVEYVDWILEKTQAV
Sequence of Human FXIa (P03951 19-387 partner): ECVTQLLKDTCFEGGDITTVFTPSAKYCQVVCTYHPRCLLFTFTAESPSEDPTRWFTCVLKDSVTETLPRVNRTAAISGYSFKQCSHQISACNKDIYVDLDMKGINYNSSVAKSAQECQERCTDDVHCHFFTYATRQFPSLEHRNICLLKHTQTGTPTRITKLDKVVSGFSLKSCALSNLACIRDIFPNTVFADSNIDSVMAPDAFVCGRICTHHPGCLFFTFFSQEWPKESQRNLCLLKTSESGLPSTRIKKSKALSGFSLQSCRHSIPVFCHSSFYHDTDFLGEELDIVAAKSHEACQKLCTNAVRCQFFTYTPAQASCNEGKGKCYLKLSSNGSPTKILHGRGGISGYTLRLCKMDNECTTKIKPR
Sequence of Human plasma kallikrein (P03952 391-638): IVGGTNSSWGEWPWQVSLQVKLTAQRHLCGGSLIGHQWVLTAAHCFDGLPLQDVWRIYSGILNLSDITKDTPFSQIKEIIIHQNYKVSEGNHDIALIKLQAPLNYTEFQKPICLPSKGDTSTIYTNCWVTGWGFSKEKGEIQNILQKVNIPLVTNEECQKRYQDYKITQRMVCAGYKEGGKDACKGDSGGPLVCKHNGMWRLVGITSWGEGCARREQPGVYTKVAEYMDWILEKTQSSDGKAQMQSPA
Sequence of Human plasma kallikrein (P03952 20-390 partner): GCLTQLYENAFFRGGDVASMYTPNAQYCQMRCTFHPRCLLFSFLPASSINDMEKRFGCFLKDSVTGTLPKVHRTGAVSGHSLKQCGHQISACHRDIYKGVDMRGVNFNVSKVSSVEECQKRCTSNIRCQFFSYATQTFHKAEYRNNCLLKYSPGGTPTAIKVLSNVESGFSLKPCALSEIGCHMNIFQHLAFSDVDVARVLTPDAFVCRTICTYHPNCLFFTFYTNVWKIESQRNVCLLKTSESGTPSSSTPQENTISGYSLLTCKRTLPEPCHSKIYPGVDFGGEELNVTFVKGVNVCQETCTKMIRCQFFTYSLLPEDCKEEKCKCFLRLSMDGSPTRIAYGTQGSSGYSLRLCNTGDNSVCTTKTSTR

Row | SMILES | IC50 (Human plasma kallikrein) | Cmax [1] | solubility at 24 h [2] | IC50 (Human KLK1) | IC50 (Human FXIa)
1 | COCc1nn(Cc2ccc3c(c2)CN(C)CC3)cc1C(=O)NCc1c(-n2cnc(C(F)F)n2)ccc(OC)c1F [Example 15, N-({6-[3-(difluoromethyl)-1,2,4-triazol-1-yl]-2-fluoro-3-methoxyphenyl}methyl)-3-(methoxymethyl)-1-[(2-methyl-3,4-dihydro-1H-isoquinolin-7-yl)methyl]pyrazole-4-carboxamide] | < 0.01 µM | 78 ng/mL | > 1000 µg/mL | > 40 µM | > 40 µM
2 | COCc1nn(Cc2ccc3c(c2)CN(C)CC3)cc1C(=O)NCc1c(-n2cc(C(F)F)nn2)ccc(OC)c1F [Example 1, N-({6-[4-(difluoromethyl)-1,2,3-triazol-1-yl]-2-fluoro-3-methoxyphenyl}methyl)-3-(methoxymethyl)-1-[(2-methyl-3,4-dihydro-1H-isoquinolin-7-yl)methyl]pyrazole-4-carboxamide] | < 0.01 µM | 88 ng/mL | 930 µg/mL (≈ 1630 µM) | > 40 µM | > 40 µM
3 | COCc1nn(Cc2ccc3c(c2)CN(C)CC3)cc1C(=O)NCc1c(-n2cc(C)nn2)ccc(OC)c1F [Example 2, N-{[2-Fluoro-3-methoxy-6-(4-methyl-1,2,3-triazol-1-yl)phenyl]methyl}-3-(methoxymethyl)-1-[(2-methyl-3,4-dihydro-1H-isoquinolin-7-yl)methyl]pyrazole-4-carboxamide] | < 0.01 µM | 134 ng/mL | 710 µg/mL (≈ 1330 µM) | > 40 µM | > 40 µM

Next, values leading:

Row | IC50 (Human plasma kallikrein) | Cmax [1] | solubility at 24 h [2] | IC50 (Human KLK1) | IC50 (Human FXIa) | SMILES
4 | < 0.01 µM | 20 ng/mL | 870 µg/mL (≈ 1460 µM) | > 40 µM | > 40 µM | COCc1nn(Cc2ccc3c(c2)CN(C(C)C)CC3)cc1C(=O)NCc1c(-n2cnc(C(F)F)n2)ccc(OC)c1F [Example 23, N-({6-[3-(difluoromethyl)-1,2,4-triazol-1-yl]-2-fluoro-3-methoxyphenyl}methyl)-1-[(2-isopropyl-3,4-dihydro-1H-isoquinolin-7-yl)methyl]-3-(methoxymethyl)pyrazole-4-carboxamide]
5 | < 0.01 µM | 9 ng/mL | 810 µg/mL (≈ 1480 µM) | > 40 µM | > 40 µM | COCc1nn(Cc2ccc3c(c2)CNCC32CC2)cc1C(=O)NCc1c(-n2cc(C)nn2)ccc(OC)c1F [Example 127, 1-{2′,3′-dihydro-1′H-spiro[cyclopropane-1,4′-isoquinoline]-7′-ylmethyl}-N-{[2-fluoro-3-methoxy-6-(4-methyl-1,2,3-triazol-1-yl)phenyl]methyl}-3-(methoxymethyl)pyrazole-4-carboxamide]
6 | < 0.01 µM | 24 ng/mL | 730 µg/mL (≈ 1280 µM) | > 40 µM | 23.8 µM | COCc1nn(Cc2ccc3c(c2)CN(C(C)C)CC3)cc1C(=O)NCc1c(-n2ccc(C#N)n2)ccc(OC)c1F [Example 24, N-{[6-(3-cyanopyrazol-1-yl)-2-fluoro-3-methoxyphenyl]methyl}-1-[(2-isopropyl-3,4-dihydro-1H-isoquinolin-7-yl)methyl]-3-(methoxymethyl)pyrazole-4-carboxamide]
